Data published in patent US20260078103A1, “ISOQUINOLONES AS PI3K INHIBITORS” (OnKure, Inc., priority 2022, published 2026).
Like-named read-outs stand apart in the source and are kept apart here.

Tests used:
Assay type in all cases: cell-based
[1] = system: phosphorylation of AKT (pAKT) in T47D cells expressing mutant PI3Ka (H1047R); assay: In vitro cell pAKT (Ser473) HTRF, T47D cells; settings: cellular pAKT, T47D cells, mutant PI3Ka (H1047R), 6 hours, read-out: Avg T-47D IC50
In short: (§1)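 Cells seeded on plates pre-stamped with 10-point compound dilutions, then grown 6 h at 37 °C (T47D in RPMI/10% FBS/insulin; SKBR3 in McCoy's 5a/10% FBS). Lysates read for pAKT Ser473 by HTRF after overnight antibody incubation. Inhibition normalised to 0.1% DMSO and 10 uM alpelisib; IC50 by four-parameter fit.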

[2] = system: phosphorylation of AKT (pAKT) in SKBR3 cells express WT PI3Ka; assay: In vitro cell pAKT (Ser473) HTRF, SKBR3 cells; settings: cellular pAKT
In short: as §1

[3] = system: SKBR3 cells express WT PI3Ka; assay: In vitro cell proliferation, SKBR3 cells (CellTiter-Glo); settings: inhibition of proliferation
In short: (§2)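 T47D (PI3Kα H1047R; RPMI, 10% FBS, insulin 0.2 units/mL) or SKBR3 (WT PI3Kα; McCoys 5a, 10% FBS) cells seeded at 1,500 cells/well on 10-point compound dilutions, grown 72 h at 37 °C. CellTiter-Glo luminescence; inhibition normalised to 0.1% DMSO and 10 uM alpelisib, EC50 from four-parameter fit.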

[4] = system: T47D cells expressing mutant PI3Ka (H1047R); assay: In vitro cell proliferation, T47D cells (CellTiter-Glo); settings: inhibition of proliferation, read-out: Avg T-47D EC50
In short: as §2

Compound | IC50 [1] | IC50 ([2]; 6 hours) | EC50 ([3]; 72 hours) | EC50 ([4]; 72 hours) | IC50 ([2]; Homo sapiens, SK-BR-3, 6 h) | EC50 ([3]; Homo sapiens, SK-BR-3, 72 h) | IC50 ([1]; Homo sapiens, T47D, 6 h) | EC50 ([4]; Homo sapiens, T47D, 72 h)
CCOc1ccc(-c2cc3c(C(C)Nc4ccccc4C(=O)O)cc(C)cc3c(=O)n2C)cn1 (single isomer, unassigned) [Example 132] | 0.001 to 0.5 µM |  |  | 0.001 to 0.5 µM | > 15 µM | > 15 µM |  | 
CCOc1ccc(-c2cc3c(C(C)Nc4ccccc4C(=O)O)cc(C)cc3c(=O)n2C)cn1 (single isomer, unassigned) [Example 133] | > 15 µM | > 15 µM | > 15 µM | 2 to 15 µM |  |  |  | 
CC(=O)N1CCC2(CC1)CCN(c1cc3c(C(C)Nc4ccccc4C(=O)O)cc(C)cc3c(=O)n1C)CC2 (single isomer, unassigned) [Example 135] | > 15 µM | > 15 µM | > 15 µM | 2 to 15 µM |  |  |  | 
Cc1cc(C(C)Nc2ccccc2C(=O)O)c2cc(N3CCN4CCC[C@H]4C3)n(C)c(=O)c2c1 (single isomer, unassigned) [Example 138] | > 15 µM |  |  | > 15 µM | > 15 µM | > 15 µM |  | 
Cc1cc(C(C)Nc2ccccc2C(=O)O)c2cc(N3CCN4C(=O)OC[C@H]4C3)n(C)c(=O)c2c1 (single isomer, unassigned) [Example 141] | > 15 µM |  |  | > 15 µM | > 15 µM | > 15 µM |  | 
Cc1cc(C(C)Nc2ccccc2C(=O)O)c2cc(N3CCN(c4ccc(C)nc4)CC3)n(C)c(=O)c2c1 (single isomer, unassigned) [Example 145] |  |  |  |  | 2 to 15 µM | 2 to 15 µM | 0.001 to 0.5 µM | 0.001 to 0.5 µM

Other lines, results leading:

IC50 [1] | IC50 ([2]; 6 hours) | EC50 ([3]; 72 hours) | EC50 ([4]; 72 hours) | IC50 ([2]; Homo sapiens, SK-BR-3, 6 h) | EC50 ([3]; Homo sapiens, SK-BR-3, 72 h) | IC50 ([1]; Homo sapiens, T47D, 6 h) | EC50 ([4]; Homo sapiens, T47D, 72 h) | Compound
0.001 to 0.5 µM | 2 to 15 µM | 2 to 15 µM | 0.001 to 0.5 µM |  |  |  |  | Cc1cc(C(C)Nc2ccc(Cl)nc2C(=O)O)c2cc(N3Cc4ccc(F)cc4C3)n(C)c(=O)c2c1 (single isomer, unassigned) [Example 128]
> 15 µM | > 15 µM | > 15 µM | 2 to 15 µM |  |  |  |  | Cc1cc(C(C)Nc2ccccc2C(=O)O)c2cc(N3CCN(C(=O)OC(C)C)CC3)n(C)c(=O)c2c1 (single isomer, unassigned) [Example 131]
 |  |  |  | > 15 µM | > 15 µM | > 15 µM | 2 to 15 µM | Cc1cc(C(C)Nc2ccccc2C(=O)O)c2cc(N3CCN4C(=O)CCC4C3)n(C)c(=O)c2c1 (single isomer, unassigned) [Example 134]
0.001 to 0.5 µM | 2 to 15 µM | 2 to 15 µM | 0.001 to 0.5 µM |  |  |  |  | CC(=O)N1CCC2(CC1)CCN(c1cc3c(C(C)Nc4ccccc4C(=O)O)cc(C)cc3c(=O)n1C)CC2 (single isomer, unassigned) [Example 136]
 |  |  |  | > 15 µM | > 15 µM | 0.001 to 0.5 µM | 0.5 to 2 µM | Cc1cc(C(C)Nc2ccccc2C(=O)O)c2cc(N3CCN4CCC[C@@H]4C3)n(C)c(=O)c2c1 (single isomer, unassigned) [Example 137]
0.5 to 2 µM | > 15 µM | > 15 µM | 0.5 to 2 µM |  |  |  |  | Cc1cc(C(C)Nc2ccccc2C(=O)O)c2cc(N3CCN4CCC[C@H]4C3)n(C)c(=O)c2c1 (single isomer, unassigned) [Example 139]
2 to 15 µM | > 15 µM | > 15 µM | 0.5 to 2 µM |  |  |  |  | Cc1cc(C(C)Nc2ccccc2C(=O)O)c2cc(N3CCN4C(=O)OC[C@H]4C3)n(C)c(=O)c2c1 (single isomer, unassigned) [Example 142]
> 15 µM |  |  |  | > 15 µM | > 15 µM |  | > 15 µM | Cc1cc(C(C)Nc2ccccc2C(=O)O)c2cc(C#Cc3cccc(Cl)c3)n(C)c(=O)c2c1 (single isomer, unassigned) [Example 143]
0.5 to 2 µM | > 15 µM | > 15 µM | > 15 µM |  |  |  |  | Cc1cc(C(C)Nc2ccccc2C(=O)O)c2cc(C#Cc3cccc(Cl)c3)n(C)c(=O)c2c1 (single isomer, unassigned) [Example 144]
